From the kinase profiling compilation of Christmann-Franck et al. (2016)

Key:
Experiment in all cases: radiometric filter-binding kinase assay, Kinase HotSpot
Conditions in all cases: compound 0.5 µM; ATP 10 µM
NEK1 (human) = NEK1 (human) (UniProt Q96PY6)
CLK3 (human) = CLK3 (human) (UniProt P49761)
CAMK1 (human) = CAMK1 (human) (UniProt Q14012)
ROCK1 (human) = ROCK1 (human) (UniProt Q13464)
ACVR1B (human) = ACVR1B (human) (UniProt P36896)
PBK (human) = PBK (human) (UniProt Q96KB5)
RET (human) = RET (human) (UniProt P07949)
PRKCZ (human) = PRKCZ (human) (UniProt Q05513)
PIM1 (human) = PIM1 (human) (UniProt P11309)
PRKCH (human) = PRKCH (human) (UniProt P24723)
MST1R (human) = MST1R (human) (UniProt Q04912)
STK11 (human) = STK11 (human) (UniProt Q15831)
FGFR2 (human) = FGFR2 (human) (UniProt P21802)
ERBB4 (human) = ERBB4 (human) (UniProt Q15303)
DSTYK (human) = DSTYK (human) (UniProt Q6XUX3)
DMPK (human) = DMPK (human) (UniProt Q09013)
MAP3K3 (human) = MAP3K3 (human) (UniProt Q99759)
FYN (human) = FYN (human) (UniProt P06241)
PIM2 (human) = PIM2 (human) (UniProt Q9P1W9)
SGK3 (human) = SGK3 (human) (UniProt Q96BR1)
STK25 (human) = STK25 (human) (UniProt O00506)
DYRK3 (human) = DYRK3 (human) (UniProt O43781)
CDK6 CCND1 (human) = CDK6 CCND1 (human) (UniProt Q00534+P24385)
PRKD2 (human) = PRKD2 (human) (UniProt Q9BZL6)
STK33 (human) = STK33 (human) (UniProt Q9BYT3)
IRAK1 (human) = IRAK1 (human) (UniProt P51617)
PRKCB1 (human) = PRKCB1 (human) (UniProt P05771)
CDC42BPA (human) = CDC42BPA (human) (UniProt Q5VT25)
NEK2 (human) = NEK2 (human) (UniProt P51955)
CSNK1G2 (human) = CSNK1G2 (human) (UniProt P78368)
CDK2 CCNA2 (human) = CDK2 CCNA2 (human) (UniProt P24941+P20248)
GSK3B (human) = GSK3B (human) (UniProt P49841)
LRRK2 (human) = LRRK2 (human) (UniProt Q5S007)
PAK3 (human) = PAK3 (human) (UniProt O75914)
ADRBK1 (human) = ADRBK1 (human) (UniProt P25098)
TGFBR1 (human) = TGFBR1 (human) (UniProt P36897)
NLK (human) = NLK (human) (UniProt Q9UBE8)
BRSK1 (human) = BRSK1 (human) (UniProt Q8TDC3)
PLK2 (human) = PLK2 (human) (UniProt Q9NYY3)
RPS6KA6 KD1 KD2 (human) = RPS6KA6 KD1 KD2 (human) (UniProt Q9UK32)
MAPK14 (human) = MAPK14 (human) (UniProt Q16539)
KIT (human) = KIT (human) (UniProt P10721)

Sequence of CLK3 (human) (P49761 whole entry, looked up): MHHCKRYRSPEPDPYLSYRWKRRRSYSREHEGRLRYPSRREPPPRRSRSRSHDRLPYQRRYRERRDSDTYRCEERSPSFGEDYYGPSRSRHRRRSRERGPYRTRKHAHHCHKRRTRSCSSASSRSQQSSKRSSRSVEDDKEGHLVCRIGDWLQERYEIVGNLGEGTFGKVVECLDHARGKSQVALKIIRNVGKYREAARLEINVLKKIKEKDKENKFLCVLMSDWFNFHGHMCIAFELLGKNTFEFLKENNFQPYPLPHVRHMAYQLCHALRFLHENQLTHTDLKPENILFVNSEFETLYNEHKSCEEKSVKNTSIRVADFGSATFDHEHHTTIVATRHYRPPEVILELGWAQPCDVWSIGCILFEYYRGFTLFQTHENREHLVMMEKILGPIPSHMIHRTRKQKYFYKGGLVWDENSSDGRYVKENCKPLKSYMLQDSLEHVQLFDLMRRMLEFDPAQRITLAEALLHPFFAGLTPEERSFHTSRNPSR
Sequence of FGFR2 (human) (P21802 whole entry, looked up): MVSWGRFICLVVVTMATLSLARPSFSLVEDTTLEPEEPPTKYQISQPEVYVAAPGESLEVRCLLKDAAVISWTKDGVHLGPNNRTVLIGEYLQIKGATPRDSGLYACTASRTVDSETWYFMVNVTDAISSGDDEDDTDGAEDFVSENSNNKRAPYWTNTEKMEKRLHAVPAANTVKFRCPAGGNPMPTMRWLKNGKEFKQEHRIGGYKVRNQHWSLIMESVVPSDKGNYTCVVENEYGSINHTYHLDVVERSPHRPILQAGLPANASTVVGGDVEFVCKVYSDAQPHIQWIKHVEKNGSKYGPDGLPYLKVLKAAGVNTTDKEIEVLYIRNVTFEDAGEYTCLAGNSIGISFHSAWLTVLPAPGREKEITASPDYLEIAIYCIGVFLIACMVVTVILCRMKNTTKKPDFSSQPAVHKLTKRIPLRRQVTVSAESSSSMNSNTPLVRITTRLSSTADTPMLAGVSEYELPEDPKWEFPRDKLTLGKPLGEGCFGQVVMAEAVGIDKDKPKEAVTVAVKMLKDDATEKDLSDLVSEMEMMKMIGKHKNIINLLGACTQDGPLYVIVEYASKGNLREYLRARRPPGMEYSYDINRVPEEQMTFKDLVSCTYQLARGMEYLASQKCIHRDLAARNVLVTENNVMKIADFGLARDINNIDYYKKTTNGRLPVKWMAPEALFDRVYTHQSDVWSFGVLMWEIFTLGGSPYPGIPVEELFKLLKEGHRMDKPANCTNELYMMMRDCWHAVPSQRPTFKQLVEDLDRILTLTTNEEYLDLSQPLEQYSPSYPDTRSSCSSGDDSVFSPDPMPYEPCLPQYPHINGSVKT
Sequence of RET (human) (P07949 whole entry, looked up): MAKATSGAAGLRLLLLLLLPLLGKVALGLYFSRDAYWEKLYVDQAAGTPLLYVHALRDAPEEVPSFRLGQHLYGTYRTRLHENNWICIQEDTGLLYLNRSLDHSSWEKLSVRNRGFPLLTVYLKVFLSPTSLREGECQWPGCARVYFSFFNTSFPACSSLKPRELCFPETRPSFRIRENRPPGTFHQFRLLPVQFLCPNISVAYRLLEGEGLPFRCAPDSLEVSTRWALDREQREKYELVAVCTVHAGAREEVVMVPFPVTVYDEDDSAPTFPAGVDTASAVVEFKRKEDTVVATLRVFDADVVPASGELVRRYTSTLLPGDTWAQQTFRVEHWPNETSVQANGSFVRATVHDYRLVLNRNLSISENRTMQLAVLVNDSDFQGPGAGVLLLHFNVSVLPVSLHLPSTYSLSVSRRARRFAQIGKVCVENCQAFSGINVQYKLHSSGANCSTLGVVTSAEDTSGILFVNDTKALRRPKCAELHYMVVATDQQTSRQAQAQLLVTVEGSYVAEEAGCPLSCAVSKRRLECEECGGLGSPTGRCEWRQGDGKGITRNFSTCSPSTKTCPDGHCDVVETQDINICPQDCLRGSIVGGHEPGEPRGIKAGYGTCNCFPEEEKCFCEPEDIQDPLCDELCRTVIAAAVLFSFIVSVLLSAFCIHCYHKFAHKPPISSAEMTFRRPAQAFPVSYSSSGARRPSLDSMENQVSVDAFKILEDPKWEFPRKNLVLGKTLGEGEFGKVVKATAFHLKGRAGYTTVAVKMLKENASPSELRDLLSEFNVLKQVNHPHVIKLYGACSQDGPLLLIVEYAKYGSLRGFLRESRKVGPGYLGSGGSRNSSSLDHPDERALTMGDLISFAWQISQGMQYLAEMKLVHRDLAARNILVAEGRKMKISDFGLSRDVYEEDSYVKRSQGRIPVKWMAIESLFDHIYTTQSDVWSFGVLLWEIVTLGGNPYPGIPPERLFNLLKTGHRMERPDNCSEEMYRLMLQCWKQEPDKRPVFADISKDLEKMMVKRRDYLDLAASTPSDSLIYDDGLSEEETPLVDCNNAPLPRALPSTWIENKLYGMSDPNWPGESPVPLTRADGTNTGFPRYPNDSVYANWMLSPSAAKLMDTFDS
Sequence of PBK (human) (Q96KB5 whole entry, looked up): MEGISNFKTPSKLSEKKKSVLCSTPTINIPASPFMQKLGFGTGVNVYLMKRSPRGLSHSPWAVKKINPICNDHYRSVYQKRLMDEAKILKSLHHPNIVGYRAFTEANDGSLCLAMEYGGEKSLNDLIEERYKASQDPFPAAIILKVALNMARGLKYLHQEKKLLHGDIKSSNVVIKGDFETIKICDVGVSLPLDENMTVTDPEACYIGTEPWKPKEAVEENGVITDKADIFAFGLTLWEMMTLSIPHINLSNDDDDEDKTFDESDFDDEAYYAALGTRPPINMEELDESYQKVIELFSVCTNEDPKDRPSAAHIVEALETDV
Sequence of PRKCB1 (human) (P05771 whole entry, looked up): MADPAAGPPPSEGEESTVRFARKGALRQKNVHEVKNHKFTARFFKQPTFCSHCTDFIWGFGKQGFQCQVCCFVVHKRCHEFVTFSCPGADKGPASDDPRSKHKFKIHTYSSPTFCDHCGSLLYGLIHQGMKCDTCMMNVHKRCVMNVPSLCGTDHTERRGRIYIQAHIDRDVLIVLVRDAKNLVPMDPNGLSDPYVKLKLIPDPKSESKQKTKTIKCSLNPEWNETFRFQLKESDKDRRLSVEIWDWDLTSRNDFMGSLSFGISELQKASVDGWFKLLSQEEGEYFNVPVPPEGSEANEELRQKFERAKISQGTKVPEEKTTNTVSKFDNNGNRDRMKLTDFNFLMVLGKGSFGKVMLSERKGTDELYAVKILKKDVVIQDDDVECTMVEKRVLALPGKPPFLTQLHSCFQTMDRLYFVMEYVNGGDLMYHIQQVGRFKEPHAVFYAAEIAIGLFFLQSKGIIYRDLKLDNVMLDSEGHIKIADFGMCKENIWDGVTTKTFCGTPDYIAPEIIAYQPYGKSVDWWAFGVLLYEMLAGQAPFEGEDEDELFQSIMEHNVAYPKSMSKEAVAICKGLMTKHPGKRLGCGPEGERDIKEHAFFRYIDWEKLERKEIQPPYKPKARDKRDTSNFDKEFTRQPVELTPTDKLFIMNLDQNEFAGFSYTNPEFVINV
Sequence of STK25 (human) (O00506 whole entry, looked up): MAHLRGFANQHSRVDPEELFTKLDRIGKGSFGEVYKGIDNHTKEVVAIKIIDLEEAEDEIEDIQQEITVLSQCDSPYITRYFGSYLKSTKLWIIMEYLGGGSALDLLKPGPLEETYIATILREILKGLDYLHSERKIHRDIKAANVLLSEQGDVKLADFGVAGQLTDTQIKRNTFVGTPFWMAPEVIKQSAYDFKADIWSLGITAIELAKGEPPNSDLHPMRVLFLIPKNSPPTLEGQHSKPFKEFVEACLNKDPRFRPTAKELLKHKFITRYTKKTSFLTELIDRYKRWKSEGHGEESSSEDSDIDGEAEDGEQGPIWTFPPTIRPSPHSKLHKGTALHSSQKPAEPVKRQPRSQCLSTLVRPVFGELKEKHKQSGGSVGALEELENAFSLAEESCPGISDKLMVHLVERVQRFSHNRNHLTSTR
Sequence of STK11 (human) (Q15831 whole entry, looked up): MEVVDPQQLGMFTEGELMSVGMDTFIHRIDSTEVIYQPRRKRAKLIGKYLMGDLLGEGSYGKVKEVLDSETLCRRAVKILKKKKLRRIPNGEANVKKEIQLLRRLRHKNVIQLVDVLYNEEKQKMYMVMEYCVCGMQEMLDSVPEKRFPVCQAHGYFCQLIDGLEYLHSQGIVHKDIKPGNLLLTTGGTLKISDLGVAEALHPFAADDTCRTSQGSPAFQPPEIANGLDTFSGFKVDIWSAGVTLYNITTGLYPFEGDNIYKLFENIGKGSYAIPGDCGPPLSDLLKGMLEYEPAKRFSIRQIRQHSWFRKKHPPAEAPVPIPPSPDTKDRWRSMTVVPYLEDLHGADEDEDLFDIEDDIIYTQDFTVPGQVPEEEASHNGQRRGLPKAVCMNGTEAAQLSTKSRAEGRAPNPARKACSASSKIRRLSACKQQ
Sequence of MAP3K3 (human) (Q99759 whole entry, looked up): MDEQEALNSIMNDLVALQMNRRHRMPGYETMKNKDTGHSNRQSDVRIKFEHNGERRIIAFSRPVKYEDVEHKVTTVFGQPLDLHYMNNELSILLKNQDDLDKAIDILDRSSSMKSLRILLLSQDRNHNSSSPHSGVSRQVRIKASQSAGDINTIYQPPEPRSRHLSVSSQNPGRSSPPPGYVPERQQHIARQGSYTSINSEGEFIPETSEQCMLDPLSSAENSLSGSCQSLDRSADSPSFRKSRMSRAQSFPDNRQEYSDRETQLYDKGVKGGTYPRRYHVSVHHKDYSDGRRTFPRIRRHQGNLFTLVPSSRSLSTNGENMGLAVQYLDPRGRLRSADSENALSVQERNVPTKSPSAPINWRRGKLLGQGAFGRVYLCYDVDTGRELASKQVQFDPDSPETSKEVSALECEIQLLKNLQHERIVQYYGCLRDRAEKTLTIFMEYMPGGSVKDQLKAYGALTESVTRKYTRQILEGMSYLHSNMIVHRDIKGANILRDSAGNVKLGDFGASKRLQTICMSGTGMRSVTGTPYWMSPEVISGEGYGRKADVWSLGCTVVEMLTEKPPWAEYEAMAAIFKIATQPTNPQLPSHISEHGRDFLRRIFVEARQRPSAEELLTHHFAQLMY

How did the residual activity (NEK1 (human)) turn out when `Cn1cnc2cc3c(Nc4cccc(Br)c4)ncnc3cc21` was run?
Its residual activity is 97.9%.

What about the residual activity (CLK3 (human)) of the same molecule?
The residual activity was 100%.

What about the residual activity (CAMK1 (human)) of the same molecule?
The residual activity was 106%.

What about the residual activity (ROCK1 (human)) of the same molecule?
Its residual activity is 98.6%.

What about the residual activity (ACVR1B (human)) of the same molecule?
Its residual activity is 111%.

What about the residual activity (PBK (human)) of the same molecule?
The residual activity was 102%.

What about the residual activity (RET (human)) of the same molecule?
The residual activity was 54.4%.

And the residual activity (PRKCZ (human))?
The residual activity was 102%.

And the residual activity (PIM1 (human))?
The residual activity was 73.8%.

And the residual activity (PRKCH (human))?
The residual activity was 81.2%.

What about the residual activity (MST1R (human)) of the same molecule?
Its residual activity is 96.5%.

And the residual activity (STK11 (human))?
Its residual activity is 91.1%.

And the residual activity (FGFR2 (human))?
Its residual activity is 98%.

What about the residual activity (ERBB4 (human)) of the same molecule?
Its residual activity is 75.5%.

What about the residual activity (DSTYK (human)) of the same molecule?
The residual activity was 97.5%.

What about the residual activity (DMPK (human)) of the same molecule?
The residual activity was 98.4%.

And the residual activity (MAP3K3 (human))?
Its residual activity is 109%.

What about the residual activity (FYN (human)) of the same molecule?
The residual activity was 85.9%.

What about the residual activity (PIM2 (human)) of the same molecule?
The residual activity was 113%.

And the residual activity (SGK3 (human))?
The residual activity was 107%.

And the residual activity (STK25 (human))?
Its residual activity is 99%.

And the residual activity (DYRK3 (human))?
Its residual activity is 102%.

And the residual activity (CDK6 CCND1 (human))?
Its residual activity is 107%.

What about the residual activity (PRKD2 (human)) of the same molecule?
The residual activity was 82.6%.

And the residual activity (STK33 (human))?
Its residual activity is 99.3%.

And the residual activity (IRAK1 (human))?
Its residual activity is 80.5%.

What about the residual activity (PRKCB1 (human)) of the same molecule?
Its residual activity is 100%.

And the residual activity (CDC42BPA (human))?
Its residual activity is 93.2%.

And the residual activity (NEK2 (human))?
Its residual activity is 103%.

And the residual activity (CSNK1G2 (human))?
The residual activity was 89.2%.

And the residual activity (CDK2 CCNA2 (human))?
The residual activity was 90.1%.

What about the residual activity (GSK3B (human)) of the same molecule?
The residual activity was 101%.

And the residual activity (LRRK2 (human))?
Its residual activity is 68.2%.

And the residual activity (PAK3 (human))?
Its residual activity is 98.5%.

And the residual activity (ADRBK1 (human))?
Its residual activity is 100%.

And the residual activity (TGFBR1 (human))?
Its residual activity is 97.6%.

And the residual activity (NLK (human))?
The residual activity was 100%.

What about the residual activity (BRSK1 (human)) of the same molecule?
Its residual activity is 81.6%.

And the residual activity (PLK2 (human))?
Its residual activity is 101%.

What about the residual activity (RPS6KA6 KD1 KD2 (human)) of the same molecule?
Its residual activity is 92.5%.

And the residual activity (MAPK14 (human))?
Its residual activity is 93.6%.

And the residual activity (KIT (human))?
Its residual activity is 78.6%.

Which results are given for `Cc1nc2cc3nc(-c4cccs4)cnc3cc2n1C`?
residual activity (NEK1 (human)): 94%; residual activity (CLK3 (human)): 114%; residual activity (CAMK1 (human)): 98.1%; residual activity (ROCK1 (human)): 97.8%; residual activity (ACVR1B (human)): 104%; residual activity (PBK (human)): 98.9%; residual activity (RET (human)): 68.9%; residual activity (PRKCZ (human)): 95.6%; residual activity (PIM1 (human)): 103%; residual activity (PRKCH (human)): 96.8%; residual activity (MST1R (human)): 107%; residual activity (STK11 (human)): 89.6%; residual activity (FGFR2 (human)): 91.8%; residual activity (ERBB4 (human)): 95%; residual activity (DSTYK (human)): 106%; residual activity (DMPK (human)): 100%; residual activity (MAP3K3 (human)): 117%; residual activity (FYN (human)): 107%; residual activity (PIM2 (human)): 114%; residual activity (SGK3 (human)): 105%; residual activity (STK25 (human)): 97.3%; residual activity (DYRK3 (human)): 111%; residual activity (CDK6 CCND1 (human)): 99.3%; residual activity (PRKD2 (human)): 106%; residual activity (STK33 (human)): 91.5%; residual activity (IRAK1 (human)): 113%; residual activity (PRKCB1 (human)): 107%; residual activity (CDC42BPA (human)): 109%; residual activity (NEK2 (human)): 97%; residual activity (CSNK1G2 (human)): 103%; residual activity (CDK2 CCNA2 (human)): 104%; residual activity (GSK3B (human)): 109%; residual activity (LRRK2 (human)): 106%; residual activity (PAK3 (human)): 98.8%; residual activity (ADRBK1 (human)): 83.7%; residual activity (TGFBR1 (human)): 98.7%; residual activity (NLK (human)): 105%; residual activity (BRSK1 (human)): 98.7%; residual activity (PLK2 (human)): 99.4%; residual activity (RPS6KA6 KD1 KD2 (human)): 88.5%; residual activity (MAPK14 (human)): 97.5%; residual activity (KIT (human)): 40.4%

For `CC(C)[C@H](CO)Nc1nc(Nc2cc(N)cc(Cl)c2)c2ncn(C(C)C)c2n1`, which residual activity (NEK1 (human)) is on record?
Its residual activity is 81.5%.

What about the residual activity (CLK3 (human)) of the same molecule?
The residual activity was 85.5%.

What about the residual activity (CAMK1 (human)) of the same molecule?
Its residual activity is 95.3%.

And the residual activity (ROCK1 (human))?
Its residual activity is 90%.

What about the residual activity (ACVR1B (human)) of the same molecule?
The residual activity was 107%.

And the residual activity (PBK (human))?
Its residual activity is 75.6%.

What about the residual activity (RET (human)) of the same molecule?
Its residual activity is 61.6%.

And the residual activity (PRKCZ (human))?
Its residual activity is 101%.

What about the residual activity (PIM1 (human)) of the same molecule?
The residual activity was 98%.

What about the residual activity (PRKCH (human)) of the same molecule?
Its residual activity is 99.4%.

What about the residual activity (MST1R (human)) of the same molecule?
The residual activity was 122%.

What about the residual activity (STK11 (human)) of the same molecule?
Its residual activity is 60.3%.

And the residual activity (FGFR2 (human))?
Its residual activity is 97.3%.

What about the residual activity (ERBB4 (human)) of the same molecule?
The residual activity was 131%.

And the residual activity (DSTYK (human))?
Its residual activity is 93.1%.

And the residual activity (DMPK (human))?
Its residual activity is 99.7%.

What about the residual activity (MAP3K3 (human)) of the same molecule?
Its residual activity is 100%.

And the residual activity (FYN (human))?
Its residual activity is 18.9%.

What about the residual activity (PIM2 (human)) of the same molecule?
The residual activity was 113%.

And the residual activity (SGK3 (human))?
The residual activity was 99.9%.

And the residual activity (STK25 (human))?
The residual activity was 81.8%.

And the residual activity (DYRK3 (human))?
The residual activity was 103%.

What about the residual activity (PRKD2 (human)) of the same molecule?
Its residual activity is 103%.

What about the residual activity (STK33 (human)) of the same molecule?
Its residual activity is 56.2%.

What about the residual activity (IRAK1 (human)) of the same molecule?
The residual activity was 97.1%.

What about the residual activity (PRKCB1 (human)) of the same molecule?
The residual activity was 98.8%.

And the residual activity (CDC42BPA (human))?
Its residual activity is 99.4%.

What about the residual activity (NEK2 (human)) of the same molecule?
The residual activity was 94.4%.

What about the residual activity (CSNK1G2 (human)) of the same molecule?
The residual activity was 35.2%.

And the residual activity (GSK3B (human))?
The residual activity was 103%.

And the residual activity (LRRK2 (human))?
The residual activity was 101%.

And the residual activity (PAK3 (human))?
The residual activity was 101%.

What about the residual activity (ADRBK1 (human)) of the same molecule?
The residual activity was 83%.

What about the residual activity (TGFBR1 (human)) of the same molecule?
Its residual activity is 103%.

What about the residual activity (NLK (human)) of the same molecule?
Its residual activity is 93.9%.

And the residual activity (BRSK1 (human))?
Its residual activity is 93.1%.

And the residual activity (PLK2 (human))?
The residual activity was 92%.

And the residual activity (RPS6KA6 KD1 KD2 (human))?
The residual activity was 46.1%.

And the residual activity (MAPK14 (human))?
Its residual activity is 98.9%.

And the residual activity (KIT (human))?
Its residual activity is 86.2%.
